Source: the NIST ThermoML archive (doi:10.1016/j.tca.2008.10.017)
± gives the expanded uncertainty stated by the source.

Experiment: Molar enthalpy of transition or fusion
Settings: DSC

SMILES: CCCC[N+](CCCC)(CCCC)CCCC.[I-] [tetrabutylammonium iodide]
- Molar enthalpy of transition or fusion (Crystal 1): 2.15 ± 0.0717 kcal/mol
- Molar enthalpy of transition or fusion (Crystal 2): 6.64 ± 0.143 kcal/mol
